Measurements as given in patent US9512459B2 (priority 2011, dated 2016).
Read-outs that look alike come from different tables or passages of the source.

Assays:
[1] = target: Sclerotinia sclerotiorum glucose dehydrogenase (FAD-GDH) Ssc-n1, wild type, SEQ ID NO: 1 (16 N-terminal residues deleted, Ser17 substituted by Met) (Sclerotinia sclerotiorum, UniProt A7F9L2); experiment: GDH activity vs glucose, saturation curve (Ssc-n1); assay type: biochemical; details: crude enzyme, glucose 1-40 mM, pH 6.5, DCIP/PMS
Method: (§1) The transformant BL21 (DE3) expressing each mutated enzyme was precultured. The transformant was inoculated in an amount of 1% with respect to 60 ml of a medium A using a 300-ml baffled flask and shake-cultured under conditions involving 20° C., 28 hours, and 125 rpm. After collection of 50 ml of the medium, the bacterial cells were suspended by the addition of BugBuster (registered trademark) protein extraction reagent (Novagen/Merck KGaA) at a ratio of 5 ml per g of wet cells and incubated at room temperature for 15 minutes with gentle shaking. Insoluble fractions were removed by centrifugation (15 Krpm, 4° C., 20 minutes). Then, the obtained supernatant was dialyzed overnight at 4° C. against a 20 mM potassium phosphate buffer solution (pH 6.5). After the completion of the dialysis, the dialysate was centrifuged, and the supernatant was used as a crude enzyme preparation. Insoluble fractions were suspended in a 20 mM potassium phosphate buffer solution (pH 6.5) at a ratio of 1 ml per 2 ml of the suspension containing the insoluble fractions.
(§2) A small-scale expression system was used for some multiple-mutated enzymes. The transformant BL21 (DE3) expressing each mutated enzyme was precultured, and the transformant was inoculated in an amount of 1 vol % with respect to 3 ml of a medium A. The bacterial cells were shake-cultured at 37° C. for 4 hours and then shake-cultured at 20° C. for 20 hours. After the culture, 2 ml of the medium was collected, then suspended by the addition of 400 μl of BugBuster (registered trademark), and then shaken at room temperature for 15 minutes. Then, the suspension was centrifuged (15000 rpm, 4° C., 20 minutes), and the obtained supernatant was used as a crude enzyme preparation.
(§3) The GDH activity was measured in a DCIP (0.3 mM)/PMS (0.6 mM) system using a 20 mM potassium phosphate buffer solution (pH 6.5) as a buffer solution and glucose (Glc; 1, 2, 4, 10, 20, and 40 mM) and xylose (Xyl; 4 and 40 mM) as substrates.
(§4) The numeric values in the tables represent a mean of several data about specific activity (U/mg) and productivity (U/L) obtained under the same conditions with 40 mM glucose as a substrate. The obtained crude enzyme preparation was used to observe the correlation between the concentration of the substrate (glucose; 1, 2, 4, 10, 20, and 40 mM) and the activity. The obtained Michaelis-Menten constant (Km value) and apparent maximum activity (Vmax) were determined from a saturation curve determined therefrom.

[2] = target: Sclerotinia sclerotiorum glucose dehydrogenase (FAD-GDH) Ssc-n2 variant N191K/S529G, SEQ ID NO: 1 (Sclerotinia sclerotiorum, UniProt A7F9L2, N191K/S529G); details: crude enzyme, glucose 1-40 mM, pH 6.5, DCIP/PMS
Method: as §1, §2, §3, §4

[3] = target: Sclerotinia sclerotiorum glucose dehydrogenase (FAD-GDH) Ssc-n2 variant N191K/S529G/G69N, SEQ ID NO: 1 (Sclerotinia sclerotiorum, UniProt A7F9L2, G69N/N191K/S529G); details: crude enzyme, glucose 1-40 mM, pH 6.5, DCIP/PMS
Method: as §1, §2, §3, §4

[4] = target: T1, Aspergillus niger glucose dehydrogenase (FAD-GDH) Ang-n2, SEQ ID NO: 2 (26 N-terminal residues deleted, Met-Thr-Asp-Ser-Thr-Leu-Asn added) (Aspergillus niger, UniProt A2QWL1); experiment: GDH activity vs glucose, saturation curve (Ang-n2); assay type: biochemical; details: crude enzyme, glucose 1-40 mM, pH 6.5, DCIP/PMS
T1 construct: pET30c, E. coli BL21(DE3), crude extract or purified (T9)
T1 sequence (A2QWL1 27-588): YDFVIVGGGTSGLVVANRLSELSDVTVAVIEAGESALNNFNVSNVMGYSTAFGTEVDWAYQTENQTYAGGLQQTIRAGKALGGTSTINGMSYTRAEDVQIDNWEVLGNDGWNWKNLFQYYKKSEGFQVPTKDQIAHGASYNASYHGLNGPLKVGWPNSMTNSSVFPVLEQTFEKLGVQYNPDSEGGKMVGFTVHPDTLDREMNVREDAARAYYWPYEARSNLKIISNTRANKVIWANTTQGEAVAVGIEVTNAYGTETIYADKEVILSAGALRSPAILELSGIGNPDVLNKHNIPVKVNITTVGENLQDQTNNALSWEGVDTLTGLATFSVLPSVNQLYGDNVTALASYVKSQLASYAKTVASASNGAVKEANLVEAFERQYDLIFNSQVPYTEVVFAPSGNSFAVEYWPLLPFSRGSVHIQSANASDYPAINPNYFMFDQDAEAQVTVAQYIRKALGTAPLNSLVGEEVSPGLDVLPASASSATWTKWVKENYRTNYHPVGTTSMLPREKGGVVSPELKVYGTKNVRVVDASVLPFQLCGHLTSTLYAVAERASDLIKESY
Method: as §1, with “After the completion of the dialysis, the dialysate was centrifuged, and the supernatant was used as a crude enzyme preparation. Insoluble fractions were suspended in a 20 mM potassium phosphate buffer solution (pH 6.5) at a ratio of 1 ml per 2 ml of the suspension containing the insoluble fractions.” left out
as §3
as §4, with “The obtained crude enzyme preparation was used to observe the correlation between the concentration of the substrate (glucose; 1, 2, 4, 10, 20, and 40 mM) and the activity.” left out

[5] = target: T2, Aspergillus niger glucose dehydrogenase (FAD-GDH) Ang-n1, wild type, SEQ ID NO: 2 (20 N-terminal residues deleted, Ala21 substituted by Met) (Aspergillus niger, UniProt A2QWL1); experiment: GDH activity vs glucose, saturation curve (Ang-n1); assay type: biochemical; details: 60 ml culture, crude enzyme; glucose 1-40 mM, pH 6.5, DCIP/PMS
T2 construct: pET30c, E. coli BL21(DE3), crude extract
T2 sequence (A2QWL1 with tags, fused parts or gaps): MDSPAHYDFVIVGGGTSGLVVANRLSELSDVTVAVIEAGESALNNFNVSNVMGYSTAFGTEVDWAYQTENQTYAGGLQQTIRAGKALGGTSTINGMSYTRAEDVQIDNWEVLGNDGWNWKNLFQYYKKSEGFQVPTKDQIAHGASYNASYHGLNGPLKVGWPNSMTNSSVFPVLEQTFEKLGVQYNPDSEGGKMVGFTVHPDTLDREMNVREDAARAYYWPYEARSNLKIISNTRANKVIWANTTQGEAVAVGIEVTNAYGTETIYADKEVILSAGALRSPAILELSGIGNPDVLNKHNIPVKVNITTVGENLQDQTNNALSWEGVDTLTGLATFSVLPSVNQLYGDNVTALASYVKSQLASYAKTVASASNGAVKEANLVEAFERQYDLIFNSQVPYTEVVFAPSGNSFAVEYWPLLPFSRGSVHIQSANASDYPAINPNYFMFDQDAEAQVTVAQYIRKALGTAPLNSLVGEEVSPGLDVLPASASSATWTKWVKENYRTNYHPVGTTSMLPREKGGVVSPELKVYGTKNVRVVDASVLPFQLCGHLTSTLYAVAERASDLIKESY
Method: as §1, with “After the completion of the dialysis, the dialysate was centrifuged, and the supernatant was used as a crude enzyme preparation. Insoluble fractions were suspended in a 20 mM potassium phosphate buffer solution (pH 6.5) at a ratio of 1 ml per 2 ml of the suspension containing the insoluble fractions.” left out
as §3
as §4, with “The obtained crude enzyme preparation was used to observe the correlation between the concentration of the substrate (glucose; 1, 2, 4, 10, 20, and 40 mM) and the activity.” left out

With OC[C@H]1OC(O)[C@H](O)[C@@H](O)[C@@H]1O (some centres unmarked) [glucose] as the molecule, how does the Km ([1]; 3 ml culture) read?
Its Km is 14.3 mM.

What about the Vmax ([1]; 3 ml culture) of the same molecule?
The Vmax was 2.2 U/mg protein.

What about the Km ([1]; 60 ml culture) of the same molecule?
Its Km is 16.6 mM.

And the Vmax ([1]; 60 ml culture)?
Its Vmax is 0.7 U/mg protein.

And the Vmax ([2]; 3 ml culture)?
Its Vmax is 16.9 U/mg protein.

What about the Vmax ([2]; 60 ml culture) of the same molecule?
Its Vmax is 38.2 U/mg protein.

And the Vmax ([3]; 3 ml culture)?
Its Vmax is 11.5 U/mg protein.

What about the Vmax ([3]; 60 ml culture) of the same molecule?
The Vmax was 13.9 U/mg protein.

What about the Vmax ([4]; 3 ml culture (Table 8)) of the same molecule?
The Vmax was 1.5 U/mg protein.

What about the Vmax ([4]; 60 ml culture) of the same molecule?
The Vmax was 1.5 U/mg protein.

What about the Vmax [5] of the same molecule?
The Vmax was 0.2 U/mg protein.
